In patent US20230115252A1, “METHODS FOR TREATING NEUROMUSCULAR JUNCTION-RELATED DISEASES” (NSERM (Institut National de la Sante et de la Recherche …, priority 2014, published 2023):

How the values were obtained:
[1] = tested on: MuSKΔCRD primary myotubes; test: AChR clustering in MuSKΔCRD primary myotubes; format: cell-based, mice; conditions: 16 h
Protocol: (§1) Muscle cells were isolated from P7-P10 hind limb Tibialis Anterior (TA) and Gastrocnemius muscles from MuSKΔCRD or WT mice. Briefly, muscle tissues were excised, separated from connective tissue, minced in dissecting medium (DMEM-F12 medium containing 2 mM glutamine, 2% penicillin/streptomycin (500 U), 2% Fungizone) and dissociated in dissecting medium containing 0.2% type I collagenase (Gibco) for 90 min at 37° C. in water bath. Cells were centrifugated, filtered and resuspended in proliferating medium (dissecting medium supplemented with 20% horse serum and 2% Ultroser G, Pall). After overnight pre-plating, cells were expanded in Matrigel (Corning) coated dishes for 3 to 5 days and differentiated in differentiating medium (dissecting medium supplemented with 2% horse serum) for 5 days. When indicated, myotubes were treated with recombinant Agrin (0.4 μg/ml, R&D system), Wnt11 (10 ng/ml, R&D system) or LiCl (2.5 mM, Sigma) for 16 h.
All images were collected on a microscope (model BX61; Olympus) equipped with a Fast 1394 Digital CCD FireWire camera (model Retiga 2000R; Qimaging) and a 20× objective or on a confocal laser scanning microscope (Zeiss LSM-710) equipped with a 20× objective and 63× oil objective. Collected Z-stacks confocal images (5 to 20 stacks with 1 to 1.5 μm (20×) z-steps) and image capture were made using LSM Image Browser. The same laser power and parameter setting were applied to ensure fair comparison between WT and MuSKΔCRD muscles. […] For quantification of the AChR clusters number, volume and intensity, image stacks were quantified using the ImageJ (version 1.46m) plugin “3D object counter” (Bolte and Cordeliéres, 2006). […] At least 4 diaphragms or 50 isolated muscle fibers of each genotype were analyzed and quantified. To evaluate β-catenin translocation to subsynaptic nuclei in isolated muscle fibers, image stacks corresponding to nuclei were used for quantification using the ImageJ intensity plot profile measuring the intensity of β-catenin and Dapi fluorescence within the segmented line.

[2] = tested on: Wnt/β-catenin signaling in MuSKΔCRD primary myotubes; test: β-catenin translocation to the nucleus in primary myotubes; format: cell-based, mice
Protocol: as §1

MuSKΔCRD embryos = test: NMJ formation in E18.5 MuSKΔCRD embryos after intraperitoneal injections in pregnant mice (whole mount diaphragm); format: in vivo
Protocol: Diaphragm muscles were dissected and fixed (4% paraformaldehyde in PBS) for 1 h at room temperature and further fixed (1% formaldehyde in PBS) overnight at 4° C. Muscles were washed three times for 15 minutes in PBS, incubated for 15 minutes with 100 mM glycine in PBS and rinsed in PBS. Muscles were permeabilized (0.5% Triton X-100 in PBS) for 1 h and blocked for 4 hours in blocking buffer (3% BSA, 5% goat serum and 0.5% Triton X-100 in PBS). Muscles were incubated overnight at 4° C. with rabbit polyclonal antibodies against neurofilament and synaptophysin in blocking solution. After three 1-hour washes in PBS, muscles were incubated overnight at 4° C. with Alexa-488 goat anti-rabbit IgG and Alexa-594-conjugated-α-bungarotoxin (α-BGT) in blocking solution. After three 1-hour washes in PBS, muscles were flat-mounted in Vectashield (Vector Labs) mounting medium.
(§2) All images were collected on a microscope (model BX61; Olympus) equipped with a Fast 1394 Digital CCD FireWire camera (model Retiga 2000R; Qimaging) and a 20× objective or on a confocal laser scanning microscope (Zeiss LSM-710) equipped with a 20× objective and 63× oil objective. Collected Z-stacks confocal images (5 to 20 stacks with 1 to 1.5 μm (20×) z-steps) and image capture were made using LSM Image Browser. The same laser power and parameter setting were applied to ensure fair comparison between WT and MuSKΔCRD muscles. Multiple Tile Scanned images were taken to cover the size of the whole diaphragm. Confocal images presented are single-projected image derived from overlaying each set of stacks. For quantification of the AChR clusters number, volume and intensity, image stacks were quantified using the ImageJ (version 1.46m) plugin “3D object counter” (Bolte and Cordeliéres, 2006). The threshold intensity was set by visual inspection of AChR clusters, being the same between WT and MuSKΔCRD images. The endplate band width was defined by the distance between the two farthest AChR clusters from the main nerve trunk. Around 100 measurements regularly spaced and covering the entire diaphragm were taken. At least 4 diaphragms or 50 isolated muscle fibers of each genotype were analyzed and quantified. To evaluate β-catenin translocation to subsynaptic nuclei in isolated muscle fibers, image stacks corresponding to nuclei were used for quantification using the ImageJ intensity plot profile measuring the intensity of β-catenin and Dapi fluorescence within the segmented line.
(§3) E12 pregnant mice or P10 adult mice were intraperitoneally injected with LiCl (Sigma, 600 mM-10 μl/g body weight) or placebo NaCl solution (0,0009%-10 μl/g body weight). Daily injections were made from E12 to E18 or from P10 to P60. After embryos genotyping, E18.5 or P60 diaphragms of LiCl-treated MuSKΔCRD mice were analyzed and compared to WT or NaCl-treated MuSKΔCRD.

MuSKΔCRD mice [3] = test: NMJ morphology in postnatal MuSKΔCRD mice injected P10 to P60 (isolated TA muscle fibers); format: in vivo
Protocol: (§4) Isolated muscle fibers were labeled with antibodies as for whole-mount immunostaining Incubation times were the following: 3 hours for blocking, overnight at 4° C. for incubation with primary or secondary antibodies.
as §2
E12 pregnant mice or P10 adult mice were intraperitoneally injected with LiCl (Sigma, 600 mM-10 μl/g body weight) or placebo NaCl solution (0,0009%-10 μl/g body weight). Daily injections were made from E12 to E18 or from P10 to P60. […]

[4] = tested on: Wnt/β-catenin signaling in MuSKΔCRD mice; test: β-catenin translocation to subsynaptic nuclei in isolated TA muscle fibers of treated MuSKΔCRD mice; format: in vivo; conditions: P40 TA muscle fibers, compared to NaCl-treated MuSKΔCRD
Protocol: as §4
All images were collected on a microscope (model BX61; Olympus) equipped with a Fast 1394 Digital CCD FireWire camera (model Retiga 2000R; Qimaging) and a 20× objective or on a confocal laser scanning microscope (Zeiss LSM-710) equipped with a 20× objective and 63× oil objective. Collected Z-stacks confocal images (5 to 20 stacks with 1 to 1.5 μm (20×) z-steps) and image capture were made using LSM Image Browser. The same laser power and parameter setting were applied to ensure fair comparison between WT and MuSKΔCRD muscles. Multiple Tile Scanned images were taken to cover the size of the whole diaphragm. […] For quantification of the AChR clusters number, volume and intensity, image stacks were quantified using the ImageJ (version 1.46m) plugin “3D object counter” (Bolte and Cordeliéres, 2006). […] At least 4 diaphragms or 50 isolated muscle fibers of each genotype were analyzed and quantified. To evaluate β-catenin translocation to subsynaptic nuclei in isolated muscle fibers, image stacks corresponding to nuclei were used for quantification using the ImageJ intensity plot profile measuring the intensity of β-catenin and Dapi fluorescence within the segmented line. […]

MuSKΔCRD mice [5] = test: Rail-grip test and grip strength in treated MuSKΔCRD mice; format: in vivo; conditions: compared to NaCl-treated MuSKΔCRD mice
Protocol: Animals were allowed to grasp a metal rail suspended in midair and their latency to release the rail was recorded. Each mouse (N=6 for each genotype) was subjected to five trials with at least 10 min rest period between tests.
The grip strength was measured using a grip force tensiometer (Bioseb) according to the TREAT-NMD guidelines. Forelimbs and hindlimbs traction strength were recorded according to the manufacter's instructions. Three measurements were performed per animal.
as §3

WT primary myotubes = test: AChR clustering in WT primary myotubes; format: cell-based, mice; conditions: Wnt11 10 ng/ml, 16 h
Protocol: as §1, with “When indicated, myotubes were treated with recombinant Agrin (0.4 μg/ml, R&D system), Wnt11 (10 ng/ml, R&D system) or LiCl (2.5 mM, Sigma) for 16 h.” left out
All images were collected on a microscope (model BX61; Olympus) equipped with a Fast 1394 Digital CCD FireWire camera (model Retiga 2000R; Qimaging) and a 20× objective or on a confocal laser scanning microscope (Zeiss LSM-710) equipped with a 20× objective and 63× oil objective. […] For quantification of the AChR clusters number, volume and intensity, image stacks were quantified using the ImageJ (version 1.46m) plugin “3D object counter” (Bolte and Cordeliéres, 2006). […] At least 4 diaphragms or 50 isolated muscle fibers of each genotype were analyzed and quantified. […]

[6] = E18.5, i.p. E12 to E18.5, vs NaCl-treated MuSKΔCRD
[7] = P40 TA, compared to NaCl-treated mice

## [Cl-].[Li+] [LiCl, lithium chloride]
[1]; LiCl 2.5 mM, MuSKΔCRD primary myotubes
  increase in the number of AChR clusters: 6 fold
[2]; LiCl-treated compared to Wnt11-treated MuSKΔCRD myotubes
  β-catenin translocation to the nucleus: increased β-catenin translocation to the nucleus
MuSKΔCRD embryos; E18.5, compared to NaCl-treated embryos
  reduction of number of bypassing neurites: 33%
MuSKΔCRD embryos; E18.5, i.p. E12 to E18.5
  reduction of length of primary nerve branches: 35%
  reduction of length of secondary nerve branches: 28%
MuSKΔCRD embryos; E18.5, i.p. E12 to E18.5, compared to NaCl-treated mutant embryos
  endplate band width reduction: 23%
MuSKΔCRD embryos; [6]
  gain in AChR clusters intensity: 20%
  gain in AChR clusters number: 103%
  gain in AChR clusters volume: 186%
MuSKΔCRD embryos; E18.5 MuSKΔCRD embryos
  rescue of pre- and postsynaptic defects: almost fully rescued both pre- and postsynaptic defects
MuSKΔCRD mice [3]; P40 TA isolated muscle fibers, compared to NaCl-treated MuSKΔCRD
  size of NMJ structures: increased in size
MuSKΔCRD mice [3]; [7]
  decrease of number of AChRs fragments per NMJ: 44%
  increase of AChR cluster area: 40%
  increase of synaptophysin area: 105%
[4]
  β-catenin translocation to subsynaptic nuclei: strong increase
MuSKΔCRD mice [5]
  fore limb strength: significantly improved
  hind limb strength: significantly improved
  latencies to fall from the rail grip: significantly improved

## agrin: recombinant Agrin (R&D system), nerve-secreted protein that binds LRP4 and activates MuSK
[1]; MuSKΔCRD compared to WT primary myotubes, agrin 0.4 μg/ml
  number of AChR clusters following agrin treatment: No difference

B1: Wnt11: member of the Wnt family known to interact with MuSK CRD; recombinant, R&D system (protein, UniProt O96014 25-354, looked up)
Protein Wnt-11: IKWLALSKTPSALALNQTQHCKQLEGLVSAQVQLCRSNLELMHTVVHAAREVMKACRRAFADMRWNCSSIELAPNYLLDLERGTRESAFVYALSAAAISHAIARACTSGDLPGCSCGPVPGEPPGPGNRWGGCADNLSYGLLMGAKFSDAPMKVKKTGSQANKLMRLHNSEVGRQALRASLEMKCKCHGVSGSCSIRTCWKGLQELQDVAADLKTRYLSATKVVHRPMGTRKHLVPKDLDIRPVKDSELVYLQSSPDFCMKNEKVGSHGTQDRQCNKTSNGSDSCDLMCCGRGYNPYTDRVVERCHCKYHWCCYVTCRRCERTVERYVCK
WT primary myotubes
  increase in the number of AChR clusters: 4.5 fold
[1]; Wnt11-treated MuSKΔCRD primary myotubes, compared to Wnt11-treated WT, 10 ng/ml
  decrease of Wnt11-induced number of AChR clusters: 80%
[2]; Wnt11-treated MuSKΔCRD compared to Wnt11-treated WT primary myotubes
  β-catenin translocation to the nucleus: strongly reduced
